This passage reports Ki results from patent US7238688B2, “Piperidine compounds” (Schering Corporation, priority 2001, dated 2007).

“And” between values parts separate entries of the source, which are not always exact repeats. Equal values may be shown once.

The assay has as its target T1, H3 receptors (Cavia porcellus, UniProt Q9JI35).
T1 construct: The source of the H3 receptors in this experiment was guinea pig brain; from tissue; host or cells: guinea pig brain membranes
As to the kind of experiment: H3-Receptor Binding Assay. The following applies: guinea pig brain membranes; 3 nM [3H]R-α-methyl histamine or 3 nM [3H]N-methyl histamine; 30° C. for 30 min. The procedure: General Procedure for H3-Receptor Binding Assay
The source of the H3 receptors in this experiment was guinea pig brain. The animals weighed 400–600 g. The brain tissue was homogenized with a solution of 50 mM Tris, pH 7.5. The final concentration of tissue in the homogenization buffer was 10% w/v. The homogenates were centrifuged at 1,000×g for 10 min. in order to remove clumps of tissue and debris. The resulting supernatants were then centrifuged at 50,000×g for 20 min. in order to sediment the membranes, which were next washed three times in homogenization buffer (50,000×g for 20 min. each). The membranes were frozen and stored at −70° C. until needed.
All compounds to be tested were dissolved in DMSO and then diluted into the binding buffer (50 mM Tris, pH 7.5) such that the final concentration was 2 μg/ml with 0.1% DMSO. Membranes were then added (400 μg of protein) to the reaction tubes. The reaction was started by the addition of 3 nM[^3H]R-α-methyl histamine (8.8 Ci/mmol) or 3 nM [^3H]N[…] -methyl histamine (80 Ci/mmol) and continued under incubation at 30° C. for 30 min. Bound ligand was separated from unbound ligand by filtration, and the amount of radioactive ligand bound to the membranes was quantitated by liquid scintillation spectrometry.

T1 sequence (Q9JI35 whole entry): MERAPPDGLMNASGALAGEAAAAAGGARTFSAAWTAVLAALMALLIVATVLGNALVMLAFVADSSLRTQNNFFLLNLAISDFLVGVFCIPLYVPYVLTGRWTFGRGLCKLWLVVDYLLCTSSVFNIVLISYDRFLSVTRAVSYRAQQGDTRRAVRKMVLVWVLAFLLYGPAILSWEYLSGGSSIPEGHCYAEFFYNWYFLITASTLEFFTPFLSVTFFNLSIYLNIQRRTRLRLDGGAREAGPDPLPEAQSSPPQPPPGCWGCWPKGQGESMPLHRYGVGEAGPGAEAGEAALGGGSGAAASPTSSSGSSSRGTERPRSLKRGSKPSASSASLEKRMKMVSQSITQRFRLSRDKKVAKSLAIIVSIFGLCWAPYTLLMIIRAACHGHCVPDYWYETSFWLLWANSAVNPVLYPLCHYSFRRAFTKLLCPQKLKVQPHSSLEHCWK

What is called Ki is the dissociation constant of the complex between target and ligand, obtained from inhibition or displacement. A lower Ki goes with tighter binding. Molecule `O=C(C1CCN(Cc2ccncc2)CC1)N1CCN(Cc2ccccc2Br)CC1` [Compound 93] had a Ki of 0.2 to 35 nM. The molecule `O=C(NCCc1ccccc1)c1cccc(CN2CCN(C(=O)C3CCN(Cc4ccncc4)CC3)CC2)c1` [Compound 276] had a Ki of 0.2 to 35 nM.

In the case of `Nc1cc(CN2CCC(C(=O)N3CCN(Cc4c(F)ccc(F)c4F)CC3)CC2)ccn1` [Compound 306], the Ki was 0.2 to 35 nM and 2 to 22 nM. For the molecule `Nc1cc(CN2CCC(C(=O)N3CCN(Cc4cccc(Cl)c4S(=O)(=O)N4CCOCC4)CC3)CC2)ccn1` [Compound 317], the Ki lay in the range of 0.2 to 35 nM. Molecule `Nc1cc(CN2CCC(C(=O)N3CCN(Cc4cc(F)ccc4Br)CC3)CC2)ccn1` [Compound 328] returned a Ki of 0.2 to 35 nM.

On to `Cc1noc(C)c1CN1CCN(C(=O)C2CCN(Cc3ccnc(N)c3)CC2)CC1` [Compound 331], for which the Ki lay within 0.2 to 35 nM. With `CN(C)S(=O)(=O)c1cc(F)ccc1CN1CCN(C(=O)C2CCN(Cc3ccnc(N)c3)CC2)CC1` [Compound 332] the figure was 0.2 to 35 nM and 2 to 22 nM; with `Nc1cc(CN2CCC(C(=O)N3CCN(Cc4cc(-c5ccc(Cl)cc5)on4)CC3)CC2)ccn1` [Compound 333], 0.2 to 35 nM and 2 to 22 nM.

On to `Nc1cc(CN2CCC(C(=O)N3CCN(Cc4c(F)cccc4Cl)CC3)CC2)ccn1` [Compound 336], for which the inhibition constant (Ki) is 0.2 to 35 nM and 2 to 22 nM. With `CN(c1ccc(Cl)cc1)S(=O)(=O)c1cc(F)ccc1CN1CCN(C(=O)C2CCN(Cc3ccnc(N)c3)CC2)CC1` [Compound 343] the figure was 0.2 to 35 nM; with `Nc1cc(CN2CCC(C(=O)N3CCN(S(=O)(=O)c4ccc(Cl)cc4)CC3)CC2)ccn1` [Compound 366], 0.2 to 35 nM and 2 to 22 nM; with `CN(C)S(=O)(=O)N1CCN(C(=O)C2CCN(Cc3ccnc(N)c3)CC2)CC1` [Compound 367], 0.2 to 35 nM. For `Nc1cc(CN2CCC(C(=O)N3CCN(S(=O)(=O)c4ccccc4Cl)CC3)CC2)ccn1` [Compound 374] the value was 0.2 to 35 nM and 2 to 22 nM; for `Nc1cc(CN2CCC(C(=O)N3CCN(S(=O)(=O)c4cc(Cl)cc(Cl)c4)CC3)CC2)ccn1` [Compound 376], 0.2 to 35 nM.
